These results are taken from patent US10654847B2, “Substituted 2-(4-heterocyclylbenzyl)isoindolin-1-one analogs as positive allosteric modulators of the muscarinic acetylcholine receptor M1” (Vanderbilt University, priority 2011, dated 2020).

The pEC50 is the negative decadic logarithm of the EC50, by convention in mol/L. The term EC50 denotes the concentration giving half of the maximal effect.

In this assay the target is T1, mAChR M1 (UniProt P11229).
T1 sequence (P11229 1-460): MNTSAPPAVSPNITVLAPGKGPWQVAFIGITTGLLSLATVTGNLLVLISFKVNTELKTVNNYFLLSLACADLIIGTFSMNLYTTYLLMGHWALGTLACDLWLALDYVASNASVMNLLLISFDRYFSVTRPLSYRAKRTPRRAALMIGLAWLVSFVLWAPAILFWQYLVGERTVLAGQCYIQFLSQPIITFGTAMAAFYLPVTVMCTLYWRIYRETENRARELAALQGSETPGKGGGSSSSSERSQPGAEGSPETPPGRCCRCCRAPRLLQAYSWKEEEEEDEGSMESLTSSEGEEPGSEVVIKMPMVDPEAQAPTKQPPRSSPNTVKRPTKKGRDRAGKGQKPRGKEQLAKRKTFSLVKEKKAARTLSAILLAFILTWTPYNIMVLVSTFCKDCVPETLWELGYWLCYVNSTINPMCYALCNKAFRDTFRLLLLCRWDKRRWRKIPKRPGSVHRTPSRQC
Nature of the assay: mAChR M1 cell-based functional assay (calcium mobilization, potentiation of EC20 acetylcholine response). As to conditions: for Emax (%): % ACh maximum at 30 μM, mAChR M1-expressing CHO-K1 cells, calcium flux; for pEC50 / EC50: positive allosteric modulation of EC20 ACh response, mAChR M1 CHO-K1 cells; for pEC50: <5 estimated where no plateau; for EC50: >10 μM estimated where no plateau, read-out: EC50. How it is done:
Chinese hamster ovary (CHO-K1) cells stably expressing rat (r)M1 were purchased from the American Type Culture Collection and cultured according to their indicated protocol. […] To make stable rM2, hM2, rM3, hM4, and rM4 cell lines for use in calcium mobilization assays, these cells also were stably transfected with a chimeric G-protein (Gqi5) (provided by B. R. Conklin, University of California, San Francisco) using Lipofectamine 2000. rM1, hM1, rM3, hM3, rM5, and hM5 cells were grown in Ham's F-12 medium containing 10% heat-inactivated fetal bovine serum (FBS), 20 mM HEPES, and 50 μg/mL G418 sulfate. rM2-Gqi5, hM2-Gqi5, and hM4-Gqi5 cells were grown in the same medium also containing 500 μg/mL Hygromycin B. Stable rM4-Gqi5 cells were grown in DMEM containing 10% heat-inactivated FBS, 20 mM HEPES, 400 μg/mL G418 sulfate, and 500 μg/mL Hygromycin B.
For high throughput measurement of agonist-evoked increases in intracellular calcium, CHO-K1 cells stably expressing muscarinic receptors were plated in growth medium lacking G418 and hygromycin at 15,000 cells/20 μL/well in Greiner 384-well black-walled, tissue culture (TC)-treated, clear-bottom plates (VWR). Cells were incubated overnight at 37° C. and 5% CO2. […] Compound master plates were formatted in an 11 point CRC format (1:3 dilutions) in 100% DMSO with a starting concentration of 10 mM using the BRAVO liquid handler (Agilent). Test compound CRCs were then transferred to daughter plates (240 nL) using the Echo acoustic plate reformatter (Labcyte, Sunnyvale, Calif.) and then diluted into assay buffer (40 μL) to a 2× stock using a Thermo Fisher Combi (Thermo Fisher Scientific, Waltham, Mass.).
Calcium flux was measured using the Functional Drug Screening System (FDSS) 6000 (Hamamatsu Corporation, Tokyo, Japan) as an increase in the fluorescent static ratio. Compounds were applied to cells (20 μL, 2×) using the automated system of the FDSS 6000 at 4 s into the 300 s protocol and the data were collected at 1 Hz. […] Agonist activity was analyzed as a concentration-dependent increase in calcium mobilization upon compound addition. Positive allosteric modulator activity was analyzed as a concentration-dependent increase in the EC20 acetylcholine response. Antagonist activity was analyzed as a concentration-dependent decrease in the EC80 acetylcholine response. Concentration-response curves were generated using a four-parameter logistical equation in XLfit curve fitting software (IDBS, Bridgewater, N.J.) for Excel (Microsoft, Redmond, Wash.) or Prism (GraphPad Software, Inc., San Diego, Calif.).
The above described assay was also operated in a second mode where an appropriate fixed concentration of the present compounds were added to the cells after establishment of a fluorescence baseline for about 3 seconds, and the response in cells was measured. […] Data were reduced as described above and the EC50 values for the agonist in the presence of test compound were determined by nonlinear curve fitting. A decrease in the EC50 value of the agonist with increasing concentrations of the present compounds (a leftward shift of the agonist concentration-response curve) is an indication of the degree of muscarinic positive allosteric modulation at a given concentration of the present compound. An increase in the EC50 value of the agonist with increasing concentrations of the present compounds (a rightward shift of the agonist concentration response curve) is an indication of the degree of muscarinic antagonism at a given concentration of the present compound. The second mode also indicates whether the present compounds also affect the maximum response of the muscarinic receptor to agonists.
The calcium mobilization assay was also used to determine “efficacy”.

The structures appear in SMILES notation.

For `Cc1n[nH]c2cc(-c3cc(F)c(CN4Cc5ncccc5C4=O)c(F)c3)ccc12` [Example B98], the “Emax (%)” value was 49%, the negative logarithm of the EC50 (pEC50) was 6.68 and the EC50 was 209 nM.

Consider `Cn1ncc2ccc(-c3ccc(CN4Cc5ccccc5C4=O)c(F)c3)cc21` [Example B24], for which the “Emax (%)” value is 64%, the pEC50 is reported as <5.00 and the EC50 was > 10000 nM.

In the case of `CN1Cc2ccc(-c3cc(F)c(CN4Cc5ncccc5C4=O)c(F)c3)cc2C1` [Example B107], the “Emax (%)” value turned out to be 56%, the pEC50 is recorded as 5.76 and the EC50 was 1740 nM.

Regarding `Cn1ccc2ccc(-c3ccc(CN4Cc5ccccc5C4=O)c(F)c3)cc21` [Example B10], the “Emax (%)” value amounted to 62%, the pEC50 was 5.51 and the EC50 was 3100 nM.

Consider `Cc1nnc(-c2ccc(CN3Cc4ccccc4S3(=O)=O)cc2)o1` [Example B123], for which the “Emax (%)” value is on record as <30%, the pEC50 was <5.00 and the EC50 was > 10000 nM.

For the molecule `O=C1c2cccnc2CN1Cc1ccc(-c2ccc(Cl)nc2)cc1F` [Example B30], the “Emax (%)” value is given as 40%, the pEC50 is 5.46 and the EC50 was 3470 nM.

Turning to `O=C1Cc2cc(-c3cc(F)c(CN4Cc5ncccc5C4=O)c(F)c3)ccc2N1` [Example B91], the “Emax (%)” value was 67%, the pEC50 is listed as 6.51 and the EC50 is 309 nM.

For `O=C1c2cccnc2CN1Cc1c(F)cc(-c2cccc3cnccc23)cc1F` [Example B99], the “Emax (%)” value came out at 41%, the pEC50 is on record as <5.00 and the half-maximal effective concentration (EC50) was > 10000 nM.

As to `O=C1c2ccccc2CN1Cc1ccc(-c2ccncc2)cc1F` [Example B11], the “Emax (%)” value is recorded as 71%, the pEC50 was 5.47 and the 50% effective concentration (EC50) is 3400 nM.

For the molecule `O=S1(=O)c2ccccc2CN1Cc1ccc(-n2cccc2)cc1` [Example B125], the “Emax (%)” value is on record as <30%, the negative logarithm of the EC50 (pEC50) is given as <5.00 and the 50% effective concentration (EC50) is > 10000 nM.

`Cn1ncc2c(-c3ccc(CN4Cc5ncccc5C4=O)c(F)c3)cccc21` [Example B29]: the “Emax (%)” value was 58%, the pEC50 is 5.80 and the concentration for a half-maximal effect (EC50) was 1590 nM.

Take `Cn1cc(-c2ccc(CN3Cc4ccccc4S3(=O)=O)c(F)c2)cn1` [Example B23]: the “Emax (%)” value is 63%, the pEC50 is given as <5.00 and the half-maximal effective concentration (EC50) is > 10000 nM.

As for `Cn1cnc2ccc(-c3cc(F)c(CN4Cc5ncccc5C4=O)c(F)c3)cc21` [Example B82], the “Emax (%)” value was found to be 72%, the negative logarithm of the EC50 (pEC50) is 6.40 and the 50% effective concentration (EC50) was 398 nM.

Consider `O=C1c2cccnc2CN1Cc1ccc(-c2ccncc2)cc1F` [Example B41], for which the “Emax (%)” value is 70%, the pEC50 is listed as 5.33 and the EC50 was 4680 nM.

With `COc1ccc(-c2ccc(CN3Cc4ncccc4C3=O)c(F)c2)cc1` [Example B50], the “Emax (%)” value was determined as 34%, the pEC50 is 6.01 and the EC50 is 977 nM.

For the molecule `Cn1cc2cc(-c3ccc(CN4Cc5ncccc5C4=O)cc3)ccc2n1` [Example B59], the “Emax (%)” value worked out at 56%, the pEC50 is 6.30 and the EC50 was 501 nM.

Take `CN(C)c1ccc(-c2ccc(CN3Cc4cccnc4C3=O)c(Cl)c2)cn1` [Example B74]: the “Emax (%)” value worked out at 58%, the pEC50 is 5.73 and the concentration for a half-maximal effect (EC50) was 1860 nM.

On to `O=C1c2cccnc2CN1Cc1c(F)cc(-c2cccc3ncccc23)cc1F` [Example B95], for which the “Emax (%)” value stood at 53%, the negative logarithm of the EC50 (pEC50) is on record as <5.00 and the EC50 is > 10000 nM.

For the molecule `O=C1c2cccnc2CN1Cc1ccc(-c2ccc3nccn3c2)cc1F` [Example B57], the “Emax (%)” value came to 69%, the pEC50 is listed as 5.68 and the EC50 was 2090 nM.

With `O=C1c2ccccc2CN1Cc1ccc(-c2ccc3cc[nH]c3c2)cc1F` [Example B121], the “Emax (%)” value is given as <30%, the pEC50 is <5.00 and the EC50 is > 10000 nM.

For the molecule `O=C1c2cccnc2CN1Cc1c(F)cc(-c2ccc3cnccc3c2)cc1F` [Example B97], the “Emax (%)” value is reported as 62%, the pEC50 was 6.23 and the EC50 was 589 nM.

In the case of `Cc1nn(C)cc1-c1ccc(CN2Cc3ccccc3C2=O)c(F)c1` [Example B2], the “Emax (%)” value is 78%, the pEC50 is 5.82 and the EC50 is 1500 nM.

For `O=C1c2ncccc2CN1Cc1ccc(-c2cccc3ncccc23)cc1F` [Example B77], the “Emax (%)” value is given as 42%, the pEC50 was 5.74 and the EC50 was 1820 nM.

On to `CN1CCc2cc(-c3cc(F)c(CN4Cc5ncccc5C4=O)c(F)c3)ccc21` [Example B103], for which the “Emax (%)” value worked out at 56%, the pEC50 is recorded as 5.83 and the EC50 is 1480 nM.

For `O=C1c2cccnc2CN1Cc1ccc(-c2cccnc2)cc1F` [Example B47], the “Emax (%)” value is given as 54%, the pEC50 is listed as 5.22 and the EC50 was 6030 nM.

Take `O=C1c2cccnc2CN1Cc1ccc(-c2ccnc(F)c2)cc1F` [Example B14]: the “Emax (%)” value is 36%, the negative-log EC50 (pEC50) is given as <5.00 and the EC50 is > 10000 nM.

On to `Cc1cc(-c2ccc(CN3Cc4ncccc4C3=O)c(F)c2)cnc1Cl` [Example B46], for which the “Emax (%)” value was 33%, the pEC50 was 5.99 and the EC50 was 1020 nM.

As to `Cn1cc(-c2cnc(CN3Cc4ncccc4C3=O)c(F)c2)cn1` [Example B18], the “Emax (%)” value came to 40%, the pEC50 is reported as <5.00 and the EC50 is > 10000 nM.

For `Cn1cc(-c2ccc(CN3Cc4ncccc4C3=O)c(F)c2)cn1` [Example B9], the “Emax (%)” value is given as 83%, the pEC50 is recorded as 5.55 and the EC50 was 2800 nM.

Turning to `Cn1ncc2cc(-c3ccc(CN4Cc5cccnc5C4=O)c(F)c3)ccc21` [Example B61], the “Emax (%)” value is listed as 38%, the pEC50 is <5.00 and the EC50 was > 10000 nM.

On to `COc1cc(-c2cccc3nn(C)cc23)ccc1CN1Cc2ncccc2C1=O` [Example B104], for which the “Emax (%)” value was found to be 70%, the pEC50 is 5.82 and the EC50 is 1510 nM.

For `Cn1cc(-c2ccc(CN3Cc4cc(F)cc(F)c4C3=O)c(F)c2)cn1` [Example B7], the “Emax (%)” value is on record as 63%, the pEC50 is 5.59 and the EC50 was 2600 nM.

In the case of `O=C1c2cccnc2CN1Cc1ccc(-c2cnc3ccccn23)cc1F` [Example B93], the “Emax (%)” value was determined as 65%, the negative logarithm of the EC50 (pEC50) is on record as 5.53 and the EC50 was 2950 nM.
